The values that follow come from patent US7893260B2, “Substituted quinazolin-4-one compounds for antagonizing TRPV3 function” (priority 2005, dated 2011).

One series has as its target T1, human TRPV3 (Homo sapiens, UniProt Q8NET8).
T1 construct: expressed in transfected cells; host or cells: HEK293/TREx (Invitrogen), tetracycline-inducible
T1 sequence (Q8NET8 1-790): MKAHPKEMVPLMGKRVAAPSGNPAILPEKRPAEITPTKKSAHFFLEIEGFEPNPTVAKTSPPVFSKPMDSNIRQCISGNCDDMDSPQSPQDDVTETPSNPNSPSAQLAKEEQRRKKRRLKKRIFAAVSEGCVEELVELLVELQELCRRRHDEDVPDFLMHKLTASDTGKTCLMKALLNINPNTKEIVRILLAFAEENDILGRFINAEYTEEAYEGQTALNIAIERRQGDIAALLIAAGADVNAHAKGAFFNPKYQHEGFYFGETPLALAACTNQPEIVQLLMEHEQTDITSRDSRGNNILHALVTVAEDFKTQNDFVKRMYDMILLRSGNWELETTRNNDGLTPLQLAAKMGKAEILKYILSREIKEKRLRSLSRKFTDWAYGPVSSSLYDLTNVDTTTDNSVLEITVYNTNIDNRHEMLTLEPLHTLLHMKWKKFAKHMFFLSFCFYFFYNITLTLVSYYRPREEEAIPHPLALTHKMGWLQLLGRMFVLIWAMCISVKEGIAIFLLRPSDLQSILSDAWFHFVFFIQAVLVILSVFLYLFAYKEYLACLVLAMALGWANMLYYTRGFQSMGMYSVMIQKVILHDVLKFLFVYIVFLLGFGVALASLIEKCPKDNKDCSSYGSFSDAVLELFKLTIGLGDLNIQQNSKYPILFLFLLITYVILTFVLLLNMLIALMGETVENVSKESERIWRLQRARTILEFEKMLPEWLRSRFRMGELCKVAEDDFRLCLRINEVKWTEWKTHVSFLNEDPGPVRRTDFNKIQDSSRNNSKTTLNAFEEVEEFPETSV
The series can be described thus: Whole-cell patch clamp, cells expressing human TRPV3. The format is cell-based. Conditions: human TRPV3 IC50 converted to mass concentration. From the text: (§1) Whole-cell patch clamp experiments permit the detection of currents through the TRPV3 channel in the cell line described above. A glass electrode is brought into contact with a single cell and the membrane is then ruptured, permitting control of the voltage of the cell membrane and measurement of currents flowing across the membrane using the amplifier attached to the electrode. A perfusion system permits control of the extracellular solution, including the addition of blockers and activators of the current. The current can be activated by heating this solution to 28° C. or warmer or by addition of 20 μM 2-APB to the solution.
(§2) TRPV3 cells were induced 20-48 hours, removed from growth plates, and replated at low density (to attain good single-cell physical separation) on glass coverslips for measurement. In some cases, cells were grown in low density overnight on glass coverslips. Patch clamp recordings were made in the whole-cell mode with a holding potential of −40 mV. […] Currents elicited were quantified at −80 mV and +80 mV. The internal solution consisted of 140 mM cesium aspartate, 10 mM EGTA, 2.27 mM MgCl2, 1.91 mM CaCl2 and 10 mM HEPES, pH to 7.2 with KOH; with 50 nM calculated free Ca^2+. […]
(§3) The plasma levels of a TRPV3 inhibitor (compound 82) were determined via HPLC/MS/MS following administration to male Sprague-Dawley rats.
In general terms: The patch-clamp technique gives a direct electrical read-out from membranes.

Series [1] in a line: Plasma levels / pharmacokinetics after IV or oral administration. The format is in vivo, male Sprague-Dawley rats. Conditions: PO suspension 50 mg/kg, rat. Here is the method:
as §3
To evaluate pharmacokinetic properties of this TRPV3 inhibitor, rats were administered a single intravenous (IV) bolus dose of […] or an oral dose of a suspension of 50 mg/kg. For intraveneous administration, the TRPV3 inhibitor solution was formulated in PBS/NaOH, pH 10.5, at a target concentration of 0.25 mg/mL. This solution was administered as a rapid bolus (2-3 seconds) at a dose volume of 4 mL/kg via the tail vein of conscious rats or via a jugular vein catheter in anesthetized rats. For oral administration, the TRPV3 inhibitor was formulated as a uniform suspension in CMC (carboxymethylcellulose) at a target concentration of 5 mg/mL, and administered by oral gavage at a dose volume of 10 mL/kg to conscious rats.

The target of the next series is T2, rat TRPV3 (Rattus norvegicus, UniProt Q4QYD9).
T2 construct: expressed in transfected cells
T2 sequence (Q4QYD9 1-791): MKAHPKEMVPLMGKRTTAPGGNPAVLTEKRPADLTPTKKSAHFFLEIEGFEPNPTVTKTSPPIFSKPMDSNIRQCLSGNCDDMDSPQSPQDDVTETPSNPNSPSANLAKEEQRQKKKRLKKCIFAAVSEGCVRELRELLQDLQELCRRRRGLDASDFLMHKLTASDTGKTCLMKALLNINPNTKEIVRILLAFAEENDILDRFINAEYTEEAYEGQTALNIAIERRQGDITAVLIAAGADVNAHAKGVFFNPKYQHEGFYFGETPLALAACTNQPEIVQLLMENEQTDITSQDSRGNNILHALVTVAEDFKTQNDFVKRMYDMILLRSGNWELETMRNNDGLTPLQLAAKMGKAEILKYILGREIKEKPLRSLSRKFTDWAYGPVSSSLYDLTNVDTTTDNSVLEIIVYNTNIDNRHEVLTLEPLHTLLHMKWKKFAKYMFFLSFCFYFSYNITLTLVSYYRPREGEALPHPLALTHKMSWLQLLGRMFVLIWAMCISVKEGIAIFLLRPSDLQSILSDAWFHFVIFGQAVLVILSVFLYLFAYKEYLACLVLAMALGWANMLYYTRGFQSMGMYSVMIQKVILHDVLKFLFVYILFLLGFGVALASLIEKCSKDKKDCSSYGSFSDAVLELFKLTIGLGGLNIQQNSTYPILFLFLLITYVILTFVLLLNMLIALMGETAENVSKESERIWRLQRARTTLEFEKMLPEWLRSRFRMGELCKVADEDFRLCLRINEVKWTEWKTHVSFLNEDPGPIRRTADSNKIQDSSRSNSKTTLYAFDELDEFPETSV
The series can be described thus: Whole-cell patch clamp, cells expressing rat TRPV3. The format is cell-based. Conditions: rat TRPV3 IC50 converted to mass concentration.
Text: as §1, §2, §3

A short description of series [2]: Plasma, brain and CSF levels after IP or PO administration. Format: in vivo. Conditions: 0.5, 1, 4 hours post IP 200 or 50 mg/kg or PO 200 mg/kg, rats. The source says:
For each time point evaluated, plasma levels are depicted by the left-most bar, brain levels are depicted by the center bar, and CSF levels are depicted by the right-most bar. […] For each time point evaluated, plasma levels are depicted by the left-most bar, brain levels are depicted by the center bar, and CSF levels are depicted by the right-most bar. […] For each time point evaluated, plasma levels are depicted by the left-most bar, brain levels are depicted by the center bar, and CSF levels are depicted by the right-most bar.

Series [3] relates to carrageenan model of acute inflammatory pain. Briefly: Carrageenan model of acute inflammatory pain (thermal hyperalgesia, Hargreaves). The format is in vivo, rats. Here is the method: As outlined above, the carrageenan model is a model of acute inflammatory pain. As such, it may be used to evaluate effectiveness in relieving pain caused by inflammation, for example, pain due to arthritis.
Briefly, naive rats were pretested for sensitivity to a heat stimulus using the Hargreaves apparatus. The next day, 100 μL of λ-carrageenan was injected into the plantar surface of the right hindpaw approximately 4.5 hours before testing. 30-60 minutes before testing the rats were injected intraperitoneally with vehicle or drug (to evaluate the efficacy of a TRPV3 inhibitor administered IP) or were administered vehicle or drug orally (PO; to evaluate the efficacy of a TRPV3 inhibitor administered orally).
In this study, the drug administered was either a TRPV3 inhibitor (compound 82), the TRPV1 inhibitor, A-425619 (produced by Abbott; maximal efficacious dose, 40 mg/kg IP; El Kouhen et al, 2005, J Pharmacol Exp Ther 314: 400-4091; Honore et al., 2005, J Pharmacol Exp Ther 314: 410-421), or the non-steroidal anti-inflammatory diclofenac. Following administration of both carrageenan and drug or vehicle control, the thermal escape latency was measured. Data are expressed as a percentage comparing the recorded Paw Withdrawal Latencies (PWLs) in seconds to that pre-carrageenan administration.

On to `COc1cccc(/C=C/c2nc3ccccc3c(=O)n2-c2ccccc2)c1O` [compound 82], for which the “effective concentration corresponding to IC50” value at human TRPV3 is reported as “approximately 94 ng/mL”; on rat TRPV3 it was roughly 105 ng/mL. Also, the “estimated half-life (T1/2)” value in series [1] is “one”. The “detection in plasma, brain and CSF (central penetration)” value in series [2] was “detected not only in plasma, but also in brain and CSF”. Also, the “reduction of thermal hyperalgesia in carrageenan model” value in series [3] (IP, 50 mg/kg) was “effective”; in series [3] (IP, 200 mg/kg), “effective”; in series [3] (oral, 200 mg/kg) it was “effective”. Besides, the “reducing pain in the carrageenan model” value in series [3] (rats, thermal hyperalgesia) is on record as “efficacious in reducing pain”.
